{
  "source": "patent US7604990B2",
  "about": "“Methods of regulating differentiation in stem cells” (ES Cell International Pte Ltd., priority 2002, dated 2009)",
  "format_in_all_cases": "cell-based, human",
  "key": {"hES cells [1]": {"system": "hES cells", "assay": "Direct observation of hES colonies in serum-depleted medium (Example 4)", "method": "(A) hES cells grown with feeder, before the depletion in serum. (B) hES cells grown without serum after 8 days (B, C) and 12 days (D, E), in absence (B, D) or presence of S1P (C, E, 10 μM).\nFor direct observation, hES-3 cells were coated into 12-well plates (3 colonies per well), with or without mouse embryonic feeders (MEFs). The day following the plating, cells were incubated with the different agents in serum free medium containing insulin, transferring and selenium. Media was changed the 2nd day and then every 2 days."}, "[2]": {"system": "ERKs (Erk1 and Erk2) in hES cells", "assay": "ERK phosphorylation Western blot in hES cells (Example 5)", "method": "Western blots experiments were performed using protein lysate from hES cells. (A) Cells were pre-treated or not with U0126 (30 μM, 1 hr) and incubated for 5 min in the absence (C, control) or presence of S1P (10 μM). (B) Cells were incubated for different time periods in the absence or presence of S1P (10 μM). (C) Cells were incubated for 5 min with various concentrations of S1P. The phosphorylation of Erk1 and Erk2 (P-Erk1 and P-Erk2) was assessed by immunoblotting with a polyclonal anti-active MAP kinase as described in Materials and Methods. After a stripping procedure, the same blots reprobed with a monoclonal anti-MAP kinase, allowed the detection of Erk1 and Erk2.\nFor immunoblot analysis, cells were transferred into 24 well plates (8 colonies per well) without MEFs, and 24 hr later, were grown in the absence of serum for 18 hrs.\nIn some experiments, cells were pre-treated for 1 hr with U0126 (30 μM) or for 18 hrs with PTX (100 μg/ml).\nhES3 cells were lysed following removal of the supernatants by addition of a reducing loading buffer (2% SDS, 62.5 mM Tris pH 6.8, 0.1 M DTT, 0.01% bromophenol blue) containing 1 mM sodium orthovanadate. Samples were boiled for 10 min and centrifuged at 13000 g for 15 min, and protein lysates (approx. 80 μg) were separated by SDS-polyacrylamide gel electrophoresis (10% polyacrylamide, w/v). Proteins were transferred to nitrocellulose (Hybond-ECL, Amersham) and immunoblotting was carried out with rabbit polyclonal anti-active mitogen-activated protein (MAPK) antibodies raised against a dually phosphorylated MAPK peptide (Promega, Madison, Wis., USA). Peroxidase-coupled secondary antibody (Dako) was detected by exposure of autoradiographic films in the presence of a chemiluminescent detection reagent (ECL, Amersham). Stripping of antibodies was achieved by incubating the membrane during 30 min at 50° C. in a buffer containing 100 mM mercaptoethanol, 2% SDS, 62.5 mM Tris-HCl pH 6.7. The membrane was then reprobing with rabbit polyclonal anti-ERK1/2 antibodies (Promega), and then with peroxidase-coupled secondary antibodies (Dako)."}, "hES cells [3]": {"system": "hES cells", "assay": "Double immunostaining GCTM-2/PCNA of dissociated hES cells (Example 4)", "conditions": "4 days without serum; S1P 10 μM", "method": "Double staining experiments were performed using antibodies for PCNA and GCTM-2.\nFor immunostaining, hES-3 cells were coated on chamber slides after mechanical dissociation, in order to obtain a monolayer culture. The day following the plating, cells were incubated with the different agents in a media depleted in serum. Media was changed the 2nd day and the cells were fixed 4 days after the first treatment.\nCells were washed in PBS, fixed with MeOH, and immunostaining was performed, using the specific stem cell marker antibody GCTM-2, and the specific cell proliferation marker PCNA. Cells were then washed and the nucleuses were stained with Hoechst-33342 (1 μg/ml). Slides were mounted and then observed by fluorescent microscopy. Cells were then counted in order to determine the ratio of proliferating stem cells within the overall population."}, "[4]": {"system": "ERKs (Erk1 and Erk2) in hES cells", "assay": "ERK phosphorylation Western blot in hES cells (Example 1)", "conditions": "hES cells, 5 min; S1P 10 μM, LPA 50 M, PDGF 20 ng/ml", "method": "RT-PCR for LPL receptors (A, B), PDGFR-[…] (alpha) and PDGFR-[…] (beta) (C), SPK-1 and SPK-2 (D), with (+) or without (−) RT. Immunostaining of hES cells with Hoechst 33342 (E, H), PDGFR-[…] (F) or PDGFR-[…] (I) and GCTM-2 (G, J) antibodies. S1P, LPA and PDGF stimulate ERKs phosphorylation in hES cells. (K) Western blots experiment were performed using protein lysate from hES cells. Cells were pre-treated or not with U0126 (30 μM, 1 hr) and incubated for 5 min in the absence (C, control) or presence of S1P (S, 10 μM), LPA (L, […]) or PDGF (P, 20 ng/ml). The phosphorylation of Erk1 and Erk2 (P-Erk1 and P-Erk2) was assessed by immunoblotting with a polyclonal anti-active MAP kinase as described in Materials and Methods. After a stripping procedure, the same blots were reprobed with a monoclonal anti-MAP kinase, allowed the detection of Erk1 and Erk2.\nhES-3 cells plated without MEF for 24 hrs were depleted of serum for a further 18 hrs. Cells pre-treated or not with U0126 (Sigma, 30 μM, 1 hr), were incubated in the presence of the different agents for 5 min and were lysed by removal of the supernatants and addition of a reducing loading buffer containing 1 mM sodium orthovanadate (Sigma). Protein lysates (approx. 80 μg) were separated by SDS-polyacrylamide gel electrophoresis (10% polyacrylamide, w/v), transferred to nitrocellulose (Hybond-nitrocellulose, Amersham) and immunoblotting was carried out using rabbit polyclonal anti-active mitogen-activated protein (MAPK) antibodies raised against a dually phosphorylated MAPK peptide (Promega, Madison, Wis., USA). Peroxidase-coupled secondary antibody (Dako) was detected by exposure of autoradiographic films in the presence of a chemiluminescent detection reagent (ECL, Amersham). Stripping of antibodies was achieved and membranes were then reprobed with rabbit polyclonal anti-ERK1/2 antibodies (Promega), and then with peroxidase-coupled secondary antibodies (Dako). Membranes probed with either rabbit polyclonal anti-active p38 (Promega) or rabbit polyclonal anti-active JNK (Promega) antibodies were also performed, using the same procedure as described above."}, "[5]": {"system": "sphingosine kinase (SPK) in hES cells", "assay": "Sphingosine kinase activity in hES cells after PDGF", "conditions": "PDGF 20 ng/ml", "method": "hES-3 cells plated without MEF for 24 hr and depleted of serum for a further 18 hr were incubated in the presence of PDGF (20 ng/ml) for various time periods and were harvested and lysed by sonication (2 W for 30 s at 4° C.) in lysis buffer containing 50 mM Tris/HCl (pH 7.4), 10% glycerol, 0.05% Triton X-100, 150 mM NaCl, 1 mM dithiothreitol, 2 mM Na3VO4, 10 mM NaF, 1 mM EDTA and protease inhibitors (Complete™, Roche, Mannheim, Germany). SPK activity was determined using D-erythro-sphingosine and […] as substrates, as previously described^19. Protein concentrations in cell homogenates were determined with Coomassie Brilliant Blue reagent (Bio-Rad, Regent Park, NSW, Australia) using bovine serum albumin as standard."}},
  "data": [
    {"compound": "CCCCCCCCCCCCC/C=C/[C@@H](O)[C@@H](N)COP(=O)(O)O", "note": "[S1P, Sphingosine-1-phosphate]", "values": [
      {"measurement": "growth/differentiation of hES colonies on MEFs", "setting": "hES cells [1]; S1P 10 μM 8 days, LPA up to 50 μM 12 days", "result": "more compact and less differentiated"},
      {"measurement": "effect on cell differentiation, hES cells grown without MEFs", "setting": "hES cells [1]; without MEFs, n=3", "result": "inhibitory effect"},
      {"measurement": "concentration dependence of ERKs stimulation", "setting": "[2]; 5 min, various concentrations of S1P", "result": "concentration dependant manner"},
      {"measurement": "duration of ERKs stimulation", "setting": "[2]; S1P 10 μM", "result": "at least 60 min"},
      {"measurement": "phosphorylation of ERKs", "setting": "[2]; hES cells, 5 min, S1P 10 μM", "result": "stimulated the phosphorylation of ERKs"},
      {"measurement": "proliferating rate of hES cells (PCNA) versus control", "setting": "hES cells [3]", "result": "no marked difference"},
      {"measurement": "phosphorylation of ERKs", "setting": "[4]", "result": "stimulated the phosphorylation of ERKs"}
    ]},
    {"compound": "PDGF", "values": [
      {"measurement": "duration of SPK activity enhancement", "setting": "[5]", "result": "at least 60 min"},
      {"measurement": "SPK activity", "setting": "[5]; 30 min, value printed in brackets after 'basal values', n=3", "result": "75.3 ± 3.92", "unit": "nmol/min/mg"},
      {"measurement": "SPK activity relative to basal values", "setting": "[5]; after 30 min of incubation", "result": 1.6, "unit": "fold"},
      {"measurement": "phosphorylation of ERKs", "setting": "[4]", "result": "stimulated the phosphorylation of ERKs"}
    ]}
  ]
}
